Experimental data from PubChem BioAssay AID1949 (Southern Research Institute, 2009).
Values after ≈ are worked out from the molar mass of the structure shown. Inconclusive results are not listed. Active and inactive are the calls of the source. The rule behind the calls is not given here.

System: M. tuberculosis H37Rv growth inhibition
Assay: Confirmatory growth inhibition assay against Mycobacterium tuberculosis H37Rv, potency (AID 1949);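 note: bacteria grown 7 days with compound before Alamar blue readout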

Structure (SMILES): CC(=O)c1ccc(OC(=O)c2sc3ccccc3c2Cl)cc1
- IC50: > 50 µg/mL (inactive)

Structure (SMILES): CCOC(=O)N1CCc2c(sc(NC(=O)c3ccc([N+](=O)[O-])o3)c2C(=O)Nc2ccc(OCC)cc2)C1
- IC50: 5.64 µg/mL (≈ 10.7 µM)

Structure (SMILES): O=C1c2cccc3cccc(c23)C(=O)N1CCN1CCN(CC(O)COc2ccccc2Cl)CC1 (centres undefined)
- IC50: 2.93 µg/mL (≈ 5.93 µM)

Structure (SMILES): O=C1N(Cc2ccccc2Cl)c2ccc(Cl)cc2C1(O)c1c[nH]c2ccccc12 (centres undefined)
- IC50: 3.04 µg/mL (≈ 7.18 µM)

Structure (SMILES): Clc1ccc(OCCn2ccnc2)c2ccccc12
- IC50: 3.99 µg/mL (≈ 14.6 µM)

Structure (SMILES): CC1=CC(C)(C)N2C(=O)C(=O)c3cc(OC(=O)c4ccccc4)cc1c32
- IC50: > 50 µg/mL (inactive)

Structure (SMILES): Cc1ccc(Cn2c(=N)n(CC(O)c3ccc(Cl)c(Cl)c3)c3ccccc32)cc1 (centres undefined)
- IC50: 2.89 µg/mL (≈ 6.78 µM)

Structure (SMILES): Cc1ccc(Cl)cc1N1CCN(CC(O)COC2CC(C)CC(C)(C)C2)CC1 (centres undefined)
- IC50: 7.82 µg/mL (≈ 19.1 µM)

Structure (SMILES): Cc1ccc(C(=O)NCCC23CC4CC(CC(C4)C2)C3)cc1
- IC50: 0.18 µg/mL (≈ 0.605 µM)

Structure (SMILES): Cc1cc(Cl)ccc1NC(=O)CCc1ccc(S(=O)(=O)NCC(C)C)cc1
- IC50: 0.53 µg/mL (≈ 1.3 µM)

Structure (SMILES): CC(NS(=O)(=O)c1cccc(Cl)c1)C(=O)Nc1ccc(Br)cc1F (centres undefined)
- IC50: 3 µg/mL (≈ 6.89 µM)

Structure (SMILES): Cn1nc([N+](=O)[O-])nc1Oc1ccc(Br)cc1
- IC50: 7.92 µg/mL (≈ 26.5 µM)

Structure (SMILES): O=S(=O)(Nc1cc(Sc2ccccc2)c(O)c2ccccc12)c1cccs1
- IC50: 25.7 µg/mL (≈ 62.2 µM)

Structure (SMILES): COc1cc([N+](=O)[O-])ccc1NC(=O)c1cc(Cl)ccc1O
- IC50: 0.12 µg/mL (≈ 0.372 µM)

Structure (SMILES): O=C(O)c1ccc(NC(CC(=O)c2ccccc2)c2ccc(Br)cc2)cc1 (centres undefined)
- IC50: 7.58 µg/mL (≈ 17.9 µM)

Structure (SMILES): CCOC(=O)COc1ccc(S(=O)(=O)Nc2ccc(C)c(C)c2)cc1
- IC50: 1.03 µg/mL (≈ 2.83 µM)

Structure (SMILES): O=C(Oc1cccc2cccnc12)c1ccccc1Br
- IC50: 1.36 µg/mL (≈ 4.14 µM)

Structure (SMILES): CN(C)c1ccc(Nc2nc(-c3ccccn3)cs2)cc1
- IC50: 0.74 µg/mL (≈ 2.5 µM)

Structure (SMILES): CCNc1nc(NCC)nc(SCCOc2ccc(Br)cc2)n1
- IC50: 4.24 µg/mL (≈ 10.6 µM)

Structure (SMILES): Cc1cccc(OCCn2c(NC(=O)c3ccco3)nc3ccccc32)c1
- IC50: 2.87 µg/mL (≈ 7.94 µM)

Structure (SMILES): CN1CCN(c2ccc(NC(=O)c3ccc(-c4cccc([N+](=O)[O-])c4)o3)cc2)CC1
- IC50: 8.66 µg/mL (≈ 21.3 µM)

Structure (SMILES): COc1ccc(C2(C(=O)Nc3ccc(Br)cc3)CCCC2)cc1
- IC50: 1.37 µg/mL (≈ 3.66 µM)

Structure (SMILES): O=C(NCCC12CC3CC(CC(C3)C1)C2)c1ccc(Br)cc1
- IC50: 0.28 µg/mL (≈ 0.773 µM)

Structure (SMILES): Cc1ccc(CSCC(=O)Nc2ccccc2)cc1
- IC50: 2.88 µg/mL (≈ 10.6 µM)

Structure (SMILES): Cc1c(Cl)ccc2c(=O)c(C(=O)O)c[nH]c12
- IC50: 29.6 µg/mL (≈ 125 µM)

Structure (SMILES): O=[N+]([O-])c1nn(-c2ccccc2)n(O)c1=NC1CCCC1
- IC50: 39.3 µg/mL (≈ 136 µM)

Structure (SMILES): C=C(C)Cn1c(=S)[nH]c2sc3c(c2c1=O)CCc1ccccc1-3
- IC50: > 50 µg/mL (inactive)

Structure (SMILES): O=C(CC1(O)C(=O)N(CCc2ccccc2)c2ccc(Cl)cc21)c1cccnc1 (centres undefined)
- IC50: 6.05 µg/mL (≈ 14.9 µM)

Structure (SMILES): Cc1cc(Cl)ccc1OCC(=O)Nc1ccc(N2CCN(C)CC2)c(Cl)c1
- IC50: 5.62 µg/mL (≈ 13.8 µM)

Structure (SMILES): O=C(Nc1ccc2c(c1)OCCO2)C(Cl)Cl
- IC50: 6.65 µg/mL (≈ 25.4 µM)

Structure (SMILES): Cc1ccc(SCCNC(=S)Nc2ccc(Nc3ccccc3)cc2)cc1
- IC50: 4.03 µg/mL (≈ 10.2 µM)

Structure (SMILES): COc1cccc(OC)c1C(=O)Nc1ccc(Cl)c(-c2nc3ccccc3s2)c1
- IC50: 1.49 µg/mL (≈ 3.51 µM)

Structure (SMILES): CCn1c2ccccc2c2cc(CN3CCC(N4CCN(c5ccccc5OC)CC4)CC3)ccc21
- IC50: 22.4 µg/mL (≈ 46.4 µM)

Structure (SMILES): C=CCc1cc(Cl)ccc1OCCCNCCCC
- IC50: 5.34 µg/mL (≈ 18.9 µM)

Structure (SMILES): CC(C(=O)OCc1ccccc1Cl)n1cnc2scc(-c3ccc(Cl)cc3)c2c1=O (centres undefined)
- IC50: > 50 µg/mL (inactive)

Structure (SMILES): CCOC(=O)c1ccc(NC(=S)Nc2ccc(Oc3ccccc3)cc2)cc1
- IC50: 0.39 µg/mL (≈ 0.994 µM)

Structure (SMILES): O=S1(=O)C=C(Sc2nnc(-c3ccncc3)o2)c2ccccc21
- IC50: 1.33 µg/mL (≈ 3.87 µM)

Structure (SMILES): CCOC(=O)COc1ccc2c(=O)c(-c3ccccc3F)coc2c1C
- IC50: < 0.1 µg/mL

Structure (SMILES): O=C(Nc1ccc([N+](=O)[O-])cc1)c1cc(Br)ccc1O
- IC50: 17.9 µg/mL (≈ 53.2 µM)

Structure (SMILES): CCOC(=O)C1=C(c2ccc(C)cc2)C(=O)c2ccccc2C1=O
- IC50: 3.03 µg/mL (≈ 9.46 µM)

Structure (SMILES): Cc1ccnc(N2C(=O)c3cccc4c([N+](=O)[O-])ccc(c34)C2=O)c1
- IC50: 1.4 µg/mL (≈ 4.2 µM)

Structure (SMILES): CC(NC(=O)Nc1ccccc1O)(C(F)(F)F)C(F)(F)F
- IC50: 11.2 µg/mL (≈ 35.5 µM)

Structure (SMILES): Cc1nn(-c2nc3ccccc3[nH]2)c(N)c1-c1ccccc1
- IC50: 0.43 µg/mL (≈ 1.49 µM)

Structure (SMILES): Cc1ccc(Cl)cc1N1CCN(C(=O)C2CCN(C(=O)c3ccc(C(C)(C)C)cc3)CC2)CC1
- IC50: 3.38 µg/mL (≈ 7.01 µM)

Structure (SMILES): CCN(CC)CCn1nc2c3c(cccc3c1=O)-c1ccccc1-2
- IC50: 5.48 µg/mL (≈ 17.2 µM)

Structure (SMILES): CC(C)OC(=O)C(C)n1cnc2scc(-c3ccc(Br)cc3)c2c1=O (centres undefined)
- IC50: 8.3 µg/mL (≈ 19.7 µM)

Structure (SMILES): CCOC(=O)c1ccccc1OC(=O)c1c(F)c(F)c(F)c(F)c1F
- IC50: 9.77 µg/mL (≈ 27.1 µM)

Structure (SMILES): Cc1ccc(-c2nc(C#N)c(NCCCn3ccnc3)o2)cc1
- IC50: > 50 µg/mL (inactive)

Structure (SMILES): CCC(=O)NC(=S)Nc1ccc(C(C)C)cc1
- IC50: < 0.1 µg/mL

Structure (SMILES): COC(=O)COc1ccc(NC(=O)CSc2ccc(Cl)cc2)cc1
- IC50: 0.77 µg/mL (≈ 2.1 µM)

Structure (SMILES): Cc1c(OC(=O)c2ccccc2Cl)ccc2c1CCCC2
- IC50: 2.51 µg/mL (≈ 8.34 µM)

Structure (SMILES): Cc1cnc(Nc2cccc(Cl)c2)s1
- IC50: 14.3 µg/mL (≈ 63.7 µM)

Structure (SMILES): COc1cc2cc(-c3nc4ccccc4[nH]3)c(N)nc2cc1OC
- IC50: 3.24 µg/mL (≈ 10.1 µM)

Structure (SMILES): CC(=O)N(C)c1ccc(OCC(O)Cn2c3ccc(Cl)cc3c3cc(Cl)ccc32)cc1 (centres undefined)
- IC50: 2.96 µg/mL (≈ 6.47 µM)

Structure (SMILES): Clc1ccc(-c2nnc(SCc3ccon3)o2)c(Cl)c1
- IC50: 0.79 µg/mL (≈ 2.41 µM)

Structure (SMILES): COC(=O)c1ccc(NC(=O)CSc2nnc(-c3ccc(Br)cc3)o2)cc1
- IC50: 5.83 µg/mL (≈ 13 µM)

Structure (SMILES): O=c1c2ccccc2nc(/C=C/c2ccc([N+](=O)[O-])o2)n1-c1cccc(O)c1
- IC50: 0.65 µg/mL (≈ 1.73 µM)

Structure (SMILES): Cc1ccc(NC(=S)Nc2cc(C)[nH]n2)c(Cl)c1
- IC50: 22.2 µg/mL (≈ 79.2 µM)

Structure (SMILES): CCOc1ccc(OCC(=O)Nc2cccc(F)c2)cc1
- IC50: < 0.1 µg/mL

Structure (SMILES): CC(C)(C)c1cc(Cl)ccc1OCCCCn1ccnc1
- IC50: 1.41 µg/mL (≈ 4.6 µM)

Structure (SMILES): Cc1ccc(-c2csc(-c3ccc(O)cc3)n2)cc1
- IC50: 2.69 µg/mL (≈ 10.1 µM)

Structure (SMILES): O=Cc1cc(COc2ccc(F)cc2Cl)cs1
- IC50: 3.16 µg/mL (≈ 11.7 µM)

Structure (SMILES): COc1cc(/C=C/c2ccc3cccc(O)c3n2)ccc1O
- IC50: 0.27 µg/mL (≈ 0.92 µM)

Structure (SMILES): O=C(NC(Nc1ccc([N+](=O)[O-])cc1)C(Cl)(Cl)Cl)c1cccc(I)c1 (centres undefined)
- IC50: 7.08 µg/mL (≈ 13.8 µM)

Structure (SMILES): CCOC(=O)COc1ccc2c(=O)c(Oc3ccc(F)cc3)c(C)oc2c1
- IC50: 1.51 µg/mL (≈ 4.06 µM)

Structure (SMILES): O=C(COc1ccc2c(-c3ccccc3)cc(=O)oc2c1)OC1CCCCC1
- IC50: < 0.1 µg/mL

Structure (SMILES): CSc1nsc(SCC(=O)c2ccccc2)n1
- IC50: 4.45 µg/mL (≈ 15.8 µM)

Structure (SMILES): CC(=O)Oc1ccccc1C(=O)OCc1ccc2ccccc2c1
- IC50: 11.7 µg/mL (≈ 36.5 µM)

Structure (SMILES): Cc1ccc2nc(N/N=C\c3ccc([N+](=O)[O-])o3)nc(-c3ccccc3)c2c1
- IC50: 3.63 µg/mL (≈ 9.72 µM)

Structure (SMILES): CCOc1cc(CNCCO)cc(Br)c1OCc1ccc(Cl)cc1Cl
- IC50: 1.54 µg/mL (≈ 3.43 µM)

Structure (SMILES): CCCCOC(=O)c1cccc(NC(=O)c2cccc(Cl)c2)c1
- IC50: 4.03 µg/mL (≈ 12.1 µM)

Structure (SMILES): Oc1ccc(Br)c2cccnc12
- IC50: < 0.1 µg/mL

Structure (SMILES): Cc1cc(OCCn2ccnc2)cc(C(C)C)c1
- IC50: 7.45 µg/mL (≈ 30.5 µM)

Structure (SMILES): COc1cccc(N2CCN(Cc3nc(N)nc(Nc4ccc(C)c(Cl)c4)n3)CC2)c1
- IC50: 1.45 µg/mL (≈ 3.3 µM)

Structure (SMILES): Cc1ccccc1Nc1nc(-c2ccccn2)cs1
- IC50: < 0.1 µg/mL

Structure (SMILES): O=C(Nc1ccccc1)Nc1ccc(S(=O)(=O)Nc2cccc(C(F)(F)F)c2)cc1
- IC50: 2.28 µg/mL (≈ 5.24 µM)

Structure (SMILES): Cc1cc(Nc2cccc(Cl)c2)nc(NCc2ccccc2)n1
- IC50: 1.39 µg/mL (≈ 4.28 µM)

Structure (SMILES): COc1ccc(N2CCN(c3ncnc4sc5c(c34)CCCC5)CC2)cc1
- IC50: > 50 µg/mL (inactive)

Structure (SMILES): CCN(CC)c1ccc(NC(=S)NCc2ccc(Cl)cc2)cc1
- IC50: 3.18 µg/mL (≈ 9.14 µM)

Structure (SMILES): Cc1ccccc1OC(=O)c1sc2ccccc2c1Cl
- IC50: 2.05 µg/mL (≈ 6.77 µM)

Structure (SMILES): CN(C)CCSc1nc(-c2cccs2)cc(-c2ccc(F)cc2)c1C#N
- IC50: 5.23 µg/mL (≈ 13.6 µM)

Structure (SMILES): COc1ccc(-c2csc(-c3cccnc3)n2)cc1C
- IC50: 12.9 µg/mL (≈ 45.9 µM)

Structure (SMILES): O=C(CN1CCN(Cc2ccccc2)CC1)Nc1ccc([N+](=O)[O-])cc1C(=O)c1ccccc1
- IC50: 2.78 µg/mL (≈ 6.06 µM)

Structure (SMILES): O=C(Nc1nc2ccccc2[nH]1)c1ccc(Br)cc1
- IC50: 14.5 µg/mL (≈ 46 µM)
